Broadly, the Papp A→B is how fast a substance crosses the layer from the apical side. A higher Papp A→B goes with fast passage.

One data set deals with KRAS G12D (Homo sapiens, UniProt P01116, G12D). The data set can be described thus: GDP-GTP exchange assay (KRAS G12D).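 Further: one dagger IC50 up to 100 nM and two daggers above 100 nM up to 1 μM.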 Format: biochemical. The conditions noted are these: bodipy-GDP/GppNHp exchange with SOS1; 4 h pre-incubation, 2 h reaction. Put shortly:
(§1)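 Bodipy-GDP-loaded KRAS (2.5 nM final) was pre-incubated 4 h at r.t. with inhibitor in Hepes pH 7.5 buffer with MgCl2, then exchange started with GppNHp (500 μM) and SOS1 (150 nM) final. Fluorescence (ex 485/em 520 nm) read after 2 h for G12D, 3 h for G12V; IC50 from four-parameter logistic fit.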

Data set [1] can be described thus: Caco2 assay (permeability, Papp A-B). The format is in vitro ADME. Particulars: human, Caco-2, absorptive direction (A-B), 50 μM test compound, 4% BSA in receiver. Put shortly:
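Caco-2 monolayers, 22-25 days on Transwells, TEER 300 Ω·cm^2, dosed apically with 50 μM compound in HBSS; basolateral HBSS with 4% BSA. 120 min at 37 °C, samples quantified by LCMS; Papp (A-B) from receiver-side cumulative flux slope, donor volume, surface area and initial donor amount.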
For orientation: Passage across Caco-2 layers is used to estimate intestinal permeability.

A further data set deals with KRAS G12V (Homo sapiens, UniProt P01116, G12V). The data set can be described thus: GDP-GTP exchange assay (KRAS G12V).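 Further: one dagger IC50 up to 100 nM and two daggers above 100 nM up to 1 μM.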 Format: biochemical. The conditions noted are these: bodipy-GDP/GppNHp exchange with SOS1; 3 h incubation after GppNHp-SOS1. Put shortly: as §1
Chain of KRAS G12V (P01116 1-188 isoform P01116-2 G12V): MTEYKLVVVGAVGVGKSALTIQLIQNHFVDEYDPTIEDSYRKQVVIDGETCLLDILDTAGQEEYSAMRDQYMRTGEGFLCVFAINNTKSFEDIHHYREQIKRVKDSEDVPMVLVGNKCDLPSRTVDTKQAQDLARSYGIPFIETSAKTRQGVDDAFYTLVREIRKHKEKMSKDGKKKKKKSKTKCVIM

Chain of KRAS G12D (P01116 1-188 isoform P01116-2 G12D): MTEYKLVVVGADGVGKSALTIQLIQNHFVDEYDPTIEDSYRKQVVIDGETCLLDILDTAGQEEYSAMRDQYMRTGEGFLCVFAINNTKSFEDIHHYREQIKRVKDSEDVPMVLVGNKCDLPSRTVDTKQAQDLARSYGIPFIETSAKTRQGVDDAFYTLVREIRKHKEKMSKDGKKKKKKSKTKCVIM

On to `Cc1cnc(N2C[C@@H]3C[C@H](C2)N(C(=O)C2CC2)[C@H]3c2cc3c(C)nc4c(F)c(-c5cccc(Cl)c5Cl)c(CCC#N)cc4c3n2[C@H]2[C@H]3CN[C@@H]2C3)s1` (atropisomer, axis not shown; (Ra)) [Example 91, 3-((Ra)-1-((1R,4R,5S)-2-azabicyclo[2.1.1]hexan-5-yl)-2-((1S,5R,7R)-6-(cyclopropanecarbonyl)-3-(5-methylthiazol-2-yl)-3,6-diazabicyclo[3.2.1]octan-7-yl)-7-(2,3-dichlorophenyl)-6-fluoro-4-methyl-1H-pyrrolo[3,2-c]quinolin-8-yl)propanenitrile], for which the “G12D_exchange (KRAS_G12D exchange assay IC50)” value (“G12D_exchange” for short) at KRAS G12D is “†”. In data set [1], this molecule displayed a Papp A→B at 120 min, 50 μM of at most 0.5 ×10⁻⁶ cm/s. The “G12V_exchange (KRAS_G12V exchange assay IC50)” value (“G12V_exchange” for short) on KRAS G12V is given as “†”.
Turning to `Cc1nc2c(F)c(-c3cccc(Cl)c3Cl)c(CCC#N)cc2c2c1cc([C@H]1[C@H]3C[C@H](CN(c4ncnn4C)C3)N1C(=O)C1CC1)n2[C@H]1[C@H]2CN[C@@H]1C2` (atropisomer, axis not shown; (Ra)) [Example 92, 3-((Ra)-1-((1R,4R,5S)-2-azabicyclo[2.1.1]hexan-5-yl)-2-((1S,5R,7R)-6-(cyclopropanecarbonyl)-3-(1-methyl-1H-1,2,4-triazol-5-yl)-3,6-diazabicyclo[3.2.1]octan-7-yl)-7-(2,3-dichlorophenyl)-6-fluoro-4-methyl-1H-pyrrolo[3,2-c]quinolin-8-yl)propanenitrile], on KRAS G12D, the “G12D_exchange” value was “†”. This molecule also showed an apical-to-basolateral permeability (Papp A→B) at 120 min, 50 μM in data set [1] of at most 0.5 ×10⁻⁶ cm/s. In addition, the “G12V_exchange” value at KRAS G12V was “†”.
In the case of `Cc1nc2c(F)c(-c3cccc(Cl)c3Cl)c(CCC#N)cc2c2c1cc([C@H]1[C@H]3C[C@H](CN(c4cscn4)C3)N1C(=O)C1CC1)n2[C@H]1[C@H]2CN[C@@H]1C2` (atropisomer, axis not shown; (Ra)) [Example 93, 3-((Ra)-1-((1R,4R,5S)-2-azabicyclo[2.1.1]hexan-5-yl)-2-((1S,5R,7R)-6-(cyclopropanecarbonyl)-3-(thiazol-4-yl)-3,6-diazabicyclo[3.2.1]octan-7-yl)-7-(2,3-dichlorophenyl)-6-fluoro-4-methyl-1H-pyrrolo[3,2-c]quinolin-8-yl)propanenitrile], the “G12D_exchange” value on KRAS G12D was “†”. This molecule also displayed a Papp A→B at 120 min, 50 μM in data set [1] of at most 0.5 ×10⁻⁶ cm/s. For the same molecule, on KRAS G12V, the “G12V_exchange” value is given as “†”.
`Cc1nc2c(F)c(-c3cccc(Cl)c3Cl)c(CCC#N)cc2c2c1cc([C@H]1[C@H]3C[C@H](CN(c4nc(C(F)(F)F)cs4)C3)N1C(=O)C1CC1)n2[C@H]1[C@H]2CN[C@@H]1C2` (atropisomer, axis not shown; (Ra)) [Example 94, 3-((Ra)-1-((1R,4R,5S)-2-azabicyclo[2.1.1]hexan-5-yl)-2-((1S,5R,7R)-6-(cyclopropanecarbonyl)-3-(4-(trifluoromethyl)thiazol-2-yl)-3,6-diazabicyclo[3.2.1]octan-7-yl)-7-(2,3-dichlorophenyl)-6-fluoro-4-methyl-1H-pyrrolo[3,2-c]quinolin-8-yl)propanenitrile]: the “G12D_exchange” value on KRAS G12D is listed as “†”. This molecule also gave a Papp A→B at 120 min, 50 μM in data set [1] of at most 0.5 ×10⁻⁶ cm/s. On KRAS G12V, the “G12V_exchange” value was “†”.
Regarding `Cc1nc(N2C[C@@H]3C[C@H](C2)N(C(=O)C2CC2)[C@H]3c2cc3c(C)nc4c(F)c(-c5cccc(Cl)c5Cl)c(CCC#N)cc4c3n2[C@H]2[C@H]3CN[C@@H]2C3)sc1C` (atropisomer, axis not shown; (Ra)) [Example 95, 3-((Ra)-1-((1R,4R,5S)-2-azabicyclo[2.1.1]hexan-5-yl)-2-((1S,5R,7R)-6-(cyclopropanecarbonyl)-3-(4,5-dimethylthiazol-2-yl)-3,6-diazabicyclo[3.2.1]octan-7-yl)-7-(2,3-dichlorophenyl)-6-fluoro-4-methyl-1H-pyrrolo[3,2-c]quinolin-8-yl)propanenitrile], the “G12D_exchange” value on KRAS G12D was “†”. This molecule registered a Papp A→B at 120 min, 50 μM in data set [1] of at most 0.5 ×10⁻⁶ cm/s. The “G12V_exchange” value on KRAS G12V was “†”.
Consider `Cc1nc2c(F)c(-c3cccc(Cl)c3Cl)c(CCC#N)cc2c2c1cc([C@H]1[C@H]3C[C@H](CN(c4nc(C#N)cs4)C3)N1C(=O)C1CC1)n2[C@H]1[C@H]2CN[C@@H]1C2` (atropisomer, axis not shown; (Ra)) [Example 96, 2-((1S,5R,7R)-7-((Ra)-1-((1R,4R,5S)-2-azabicyclo[2.1.1]hexan-5-yl)-8-(2-cyanoethyl)-7-(2,3-dichlorophenyl)-6-fluoro-4-methyl-1H-pyrrolo[3,2-c]quinolin-2-yl)-6-(cyclopropanecarbonyl)-3,6-diazabicyclo[3.2.1]octan-3-yl)thiazole-4-carbonitrile], for which the “G12D_exchange” value at KRAS G12D is “†”. In addition, in data set [1], the Papp A→B at 120 min, 50 μM is at most 0.5 ×10⁻⁶ cm/s. Further, the “G12V_exchange” value at KRAS G12V is listed as “†”.
`Cc1sc(N2C[C@@H]3C[C@H](C2)N(C(=O)C2CC2)[C@H]3c2cc3c(C)nc4c(F)c(-c5cccc(Cl)c5Cl)c(CCC#N)cc4c3n2[C@H]2[C@H]3CN[C@@H]2C3)nc1C#N` (atropisomer, axis not shown; (Ra)) [Example 97, 2-((1S,5R,7R)-7-((Ra)-1-((1R,4R,5S)-2-azabicyclo[2.1.1]hexan-5-yl)-8-(2-cyanoethyl)-7-(2,3-dichlorophenyl)-6-fluoro-4-methyl-1H-pyrrolo[3,2-c]quinolin-2-yl)-6-(cyclopropanecarbonyl)-3,6-diazabicyclo[3.2.1]octan-3-yl)-5-methylthiazole-4-carbonitrile]: the “G12D_exchange” value on KRAS G12D is given as “†”. In data set [1], the Papp A→B at 120 min, 50 μM was at most 0.5 ×10⁻⁶ cm/s. In addition, the “G12V_exchange” value at KRAS G12V was “†”.
Consider `Cc1nc(N2C[C@@H]3C[C@H](C2)N(C(=O)C2CC2)[C@H]3c2cc3c(C)nc4c(F)c(-c5cccc(Cl)c5Cl)c(CCC#N)cc4c3n2[C@H]2[C@H]3CN[C@@H]2C3)sc1C#N` (atropisomer, axis not shown; (Ra)) [Example 98, 2-((1S,5R,7R)-7-((Ra)-1-((1R,4R,5S)-2-azabicyclo[2.1.1]hexan-5-yl)-8-(2-cyanoethyl)-7-(2,3-dichlorophenyl)-6-fluoro-4-methyl-1H-pyrrolo[3,2-c]quinolin-2-yl)-6-(cyclopropanecarbonyl)-3,6-diazabicyclo[3.2.1]octan-3-yl)-4-methylthiazole-5-carbonitrile], for which the “G12D_exchange” value at KRAS G12D is given as “†”. This molecule gave a Papp A→B at 120 min, 50 μM in data set [1] of at most 0.5 ×10⁻⁶ cm/s. Further, at KRAS G12V, the “G12V_exchange” value is “†”.
As to `CCc1cnc(N2C[C@@H]3C[C@H](C2)N(C(=O)C2CC2)[C@H]3c2cc3c(C)nc4c(F)c(-c5cccc(Cl)c5Cl)c(CCC#N)cc4c3n2[C@H]2[C@H]3CN[C@@H]2C3)s1` (atropisomer, axis not shown; (Ra)) [Example 99, 3-((Ra)-1-((1R,4R,5S)-2-azabicyclo[2.1.1]hexan-5-yl)-2-((1S,5R,7R)-6-(cyclopropanecarbonyl)-3-(5-ethylthiazol-2-yl)-3,6-diazabicyclo[3.2.1]octan-7-yl)-7-(2,3-dichlorophenyl)-6-fluoro-4-methyl-1H-pyrrolo[3,2-c]quinolin-8-yl)propanenitrile], at KRAS G12D, the “G12D_exchange” value was “†”. The Papp A→B at 120 min, 50 μM in data set [1] is at most 0.5 ×10⁻⁶ cm/s. Also, on KRAS G12V, the “G12V_exchange” value is reported as “†”.
Turning to `Cc1nc2c(F)c(-c3cccc(Cl)c3Cl)c(CCC#N)cc2c2c1cc([C@H]1[C@H]3C[C@H](CN(c4ccon4)C3)N1C(=O)C1CC1)n2[C@H]1[C@H]2CN[C@@H]1C2` (atropisomer, axis not shown; (Ra)) [Example 100, 3-((Ra)-1-((1R,4R,5S)-2-azabicyclo[2.1.1]hexan-5-yl)-2-((1S,5R,7R)-6-(cyclopropanecarbonyl)-3-(isoxazol-3-yl)-3,6-diazabicyclo[3.2.1]octan-7-yl)-7-(2,3-dichlorophenyl)-6-fluoro-4-methyl-1H-pyrrolo[3,2-c]quinolin-8-yl)propanenitrile], the “G12D_exchange” value on KRAS G12D is given as “†”. Besides, the Papp A→B at 120 min, 50 μM in data set [1] is at most 0.5 ×10⁻⁶ cm/s. The “G12V_exchange” value at KRAS G12V is “†”.
For the molecule `Cc1sc(N2C[C@@H]3C[C@H](C2)N(C(=O)C2CC2)[C@H]3c2cc3c(C)nc4c(F)c(-c5cccc(Cl)c5Cl)c(CCC#N)cc4c3n2[C@H]2[C@H]3CN[C@@H]2C3)nc1C(C)(F)F` (atropisomer, axis not shown; (Ra)) [Example 103, 3-((Ra)-1-((1R,4R,5S)-2-azabicyclo[2.1.1]hexan-5-yl)-2-((1S,5R,7R)-6-(cyclopropanecarbonyl)-3-(4-(1,1-difluoroethyl)-5-methylthiazol-2-yl)-3,6-diazabicyclo[3.2.1]octan-7-yl)-7-(2,3-dichlorophenyl)-6-fluoro-4-methyl-1H-pyrrolo[3,2-c]quinolin-8-yl)propanenitrile], the “G12D_exchange” value on KRAS G12D is reported as “†”. Besides, the Papp A→B at 120 min, 50 μM in data set [1] was at most 0.5 ×10⁻⁶ cm/s. The “G12V_exchange” value on KRAS G12V is recorded as “†”.
For `Cc1nc2c(F)c(-c3cccc(Cl)c3Cl)c(CCC#N)cc2c2c1cc([C@H]1[C@H]3C[C@H](CN(c4cnsc4)C3)N1C(=O)C1CC1)n2[C@H]1[C@H]2CN[C@@H]1C2` (atropisomer, axis not shown; (Ra)) [Example 104, 3-((Ra)-1-((1R,4R,5S)-2-azabicyclo[2.1.1]hexan-5-yl)-2-((1S,5R,7R)-6-(cyclopropanecarbonyl)-3-(isothiazol-4-yl)-3,6-diazabicyclo[3.2.1]octan-7-yl)-7-(2,3-dichlorophenyl)-6-fluoro-4-methyl-1H-pyrrolo[3,2-c]quinolin-8-yl)propanenitrile], the “G12D_exchange” value at KRAS G12D is on record as “†”. Also, in data set [1], the Papp A→B at 120 min, 50 μM was at most 0.5 ×10⁻⁶ cm/s. In addition, the “G12V_exchange” value on KRAS G12V is listed as “†”.

These data come from patent publication US20250195536A1, “BICYCLOOCTANE KRAS INHIBITORS” (Incyte Corporation, priority 2023, published 2025).
